Consider one molecule from US20060122105A1, “Method of improing the growth performance of an animal” (priority 2001, published 2006).

In test [1] the test system is Actinobacillus pleuropneumoniae (App). The test is described as follows: App challenge of pigs, prophylactic recombinant IL-1ra, plasmid IL-1ra or flunix (Example 5). Format: in vivo. Set-up: improvements in weight gain over saline controls / reduction in weight gain compared to saline controls / reduction in clinical symptoms compared to saline / reduction of pleurisy compared to saline treated controls / reduction in affected lung mass compared to saline treated controls: concentration or dose not given beside the values. The protocol:
Male pigs, with a mean starting weight of 52 kg, were allocated to 5 treatment groups as outlined in Table 6. Pigs were housed in group pens, with each pen containing a replicate from each of the treatment groups. The starting weights of each treatment group and each pen were equal prior to the start of the trial. Pigs were provided with pelleted feed and water ad libitum.
Recombinant IL-1ra and saline-were administered as 1 ml doses, given subcutaneously behind the ear. Plasmids were administered in 1 ml doses, given intramuscularly in the hind-leg. Flunix was administered as a 2 ml dose according to the manufacturer's instructions, and delivered intramuscularly in the neck. The timetable of administration is outlined in Table 6 below.
Prior to challenge, pigs were treated with recombinant cytokines, flunix or plasmids as described Table 7. Pigs were anaesthetised and infected intratracheally with 7.5×10^5 pfu App on day 0.
Blood was sampled from pigs by venipuncture at 0, 24 h and 14 days post-challenge. Blood was assayed for immunological parameters as previously described. Pigs were weighed weekly from delivery of plasmids and for 2 weeks after challenge.
At the conclusion of the trial, pigs were euthanased and the lungs removed for post-mortem examination. Lungs were scored for pleurisy from 0-5 (FIGS. 39 and 40) and the degree of pleuropneumonia was determined by weighing affected lung and expressed as a percentage of total lung weight (FIGS. 41 and 42). Pigs treated with flunix and IL-1ra had less pleurisy than the saline controls (FIG. 39).

Test [2] has the same test system. The description is as above. The conditions noted are these: day 13 after challenge compared with pre-challenge levels; FIG. 35. The format is in vivo.

Molecules are shown by their SMILES.

Turning to `Cc1c(Nc2ncccc2C(=O)O)cccc1C(F)(F)F` [flunix, reference compound], the “reduction in weight gain compared to saline controls” value in test [1] (14d App challenge, FIG. 33) is 84.6%. Moreover, in test [1] (after App challenge, compared with saline treated controls, FIG. 36), the “production of IL-6 (mRNA in peripheral blood)” value is listed as “reduce the production of IL-6 only”. Further, the “growth during the week of challenge” value in test [1] (first week after App challenge, FIG. 30) was “weight loss”. Besides, the “reduction in affected lung mass compared to saline treated controls” value in test [1] (percentage of lung affected by App lesions, FIG. 42) amounted to 64.1%. Besides, in test [1] (pleurisy score 0-5 at necropsy, FIG. 40), the “reduction of pleurisy compared to saline treated controls” value worked out at 55.6%. Besides, in test [2], the “levels of TNFα protein in the serum” value is recorded as “failed to inhibit the production of TNFα”.
